Several values for one entry are separate records, joined by “and”; a condition that tells them apart may be missing. Equal entries are not always repeated.
Key:
[1] = test system: diet-induced NASH obese insulin resistant mice; assay: Diet-induced NASH (DIN) obese insulin-resistant mouse model: plasma ALT and AST; format: in vivo; details: for ALAT area under the curve / ASAT area under the curve / ALAT, days of treatment 0 / ASAT, days of treatment 0 / ALAT, days of treatment 14 / ASAT, days of treatment 14 / ALAT, days of treatment 28 / ASAT, days of treatment 28 / ALAT, days of treatment 42 / ASAT, days of treatment 42 / ALAT, days of treatment 56 / ASAT, days of treatment 56 / ALAT, days of treatment 70 / ASAT, days of treatment 70: plasma; for ALAT area under the curve / ASAT area under the curve: 70-day treatment; for ALAT area under the curve / ASAT area under the curve / ALAT, days of treatment 0 / ASAT, days of treatment 0: 20 mg/kg; for ALAT, days of treatment 0 / ASAT, days of treatment 0: day 0 (baseline); for ALAT, days of treatment 14 / ASAT, days of treatment 14: day 14, 20 mg/kg; for ALAT, days of treatment 28 / ASAT, days of treatment 28: day 28, 20 mg/kg; for ALAT, days of treatment 42 / ASAT, days of treatment 42: day 42, 20 mg/kg; for ALAT, days of treatment 56 / ASAT, days of treatment 56: day 56, 20 mg/kg; for ALAT, days of treatment 70 / ASAT, days of treatment 70: day 70, 20 mg/kg
Experimental: (§1) Male C57Bl/6J mice (8 weeks old) were housed in enriched ventilated cages (31×12.5×12.7 cm) throughout the experimental phase. Animals' cages litters were changed at least once a week. Animal were housed 5 per cage on inverted 12-hour light cycle (at 09:00 am lights off), 22±2° C. and 55±10% relative humidity. The acclimation period was 20 days. During the acclimation period, all mice were fed a standard diet (RM1 (E) 801492, SDS) and tap water ad libitum. After the acclimation period, mice were fed with the DIN diet (60% fat, cholesterol enriched) and fructose-enriched tap water ad libitum until the end of the experiment.
(§2) At 6 weeks of diet, mice were 4-hour fasted (09:00 am to 1:00 pm) and blood (150 μl/EDTA) was collected at 01:00 pm by retro-orbital bleeding under isoflurane anesthesia. Mice were then allocated in 2 homogenous groups (n=12/group) according to their plasma levels of ALT (average levels: 685U/L), AST (average levels: 627U/L) and HOMA-IR index (average value: 4.7), into 2 homogenous groups (see values at day 0 in Tables 15A and 15B ALT/AST and Tables 16A and 16B for HOMA-IR). Mice were then treated once daily by oral gavage with vehicle (Group 1) or Compound #37 at 20 mg/kg (Group 2) for 70 days.
To investigate whether Compound #37 improves pre-existing steatosis/NASH pathology, a study was conducted using a 16-week diet-induced NASH mouse model. In this model, mice develop steatosis that progresses with inflammation and fibrosis that mimic many of the observed pathologies in human nonalcoholic fatty liver disease (NAFLD) and NASH (Hebbard & George, 2010). For 6 weeks, mice were fed a high-fat, high-cholesterol diet and provided drinking water containing fructose to induce liver pathology (Charlton et al, 2011). After 6 weeks, the mice were divided into 2 groups with similar mean aspartate aminotransferase (AST) and alanine aminotransferase (ALT) values (n=12 mice), although it should be noted that AST and ALT concentrations within both groups were higher and with greater variability than anticipated (e.g., mean ALT 677 U/L [SD, 401 U/L] in the vehicle control group and 693 U/L [SD, 365 U/L] in the Compound #37 group). After the animals were divided into 2 groups, the diet was continued for 10 additional weeks during which time 1 group received vehicle and the other was treated with 20 mg/kg/day Compound #37.

[2] = test system: ob/ob mice; assay: ob/ob mice: liver Oil Red O staining; format: in vivo, mouse; details: 8 weeks
Experimental: Groups of mice were either untreated (group 1) or treated for 8 weeks with vehicle (group 2), or with Compound #37 at 5 mg/kg (group 3), 10 mg/kg (group 4), or 20 mg/kg (group 5). Treatment was daily by oral gavage in vehicle (20% HPβCD). Values are presented as mean±standard error of the mean (sem). A t test was performed to compare the untreated group and the vehicle group. Then Compound #37-treated groups were compared to the vehicle-treated group with a 1-way ANOVA+Dunnett's post-test. […] For each test, a p<0.05 was considered significant. Of note, animal #39, group 1 was excluded from the statistical analysis, due to low values for all parameters measured. Some other values were considered as out-liners and excluded from the statistical analysis when the value was far below the mean minus 2 SD. Excluded values are marked with an asterisk in Tables 21-23.

[3] = 28-day repeat-dose toxicity study in healthy rats: plasma exposure (AUC24h); format: in vivo, rat; details: day 28
Experimental: In the repeat-dose toxicity study in rats (Compound #37P018), Compound #37 was given at 0 (vehicle control), 50, 100/75, and 200/150 mg/kg/day for 28 days; some animals from each dose group continued into a 28-day recovery period. After 28 days of treatment, liver neutral lipids from treated and control animals were analyzed with Oil Red O staining.
The more pronounced effects in female rats compared with male rats is consistent with the observed higher plasma exposure (>4-fold higher area under the curve over 24 hours [AUC24h]) at day 28 in females compared with males. Evidence of an effect of Compound #37 on leptin concentrations was also observed in female rats in a dose-dependent manner. As animals gain weight, leptin concentrations naturally increase due to its origin from adipose tissue. Female rats treated with Compound #37 had lower concentrations of leptin compared with the vehicle control group during the treatment period (day 4 and day 28), which was not observed after treatment termination and recovery (day 56) (FIG. 7).

[4] = test system: SCD1; assay: DIN mouse model: hepatic SCD1 gene expression; format: in vivo; design: key to 2^DDct: expression relative to vehicle group, normalized to 18S; details: for 2^DDct / DDct / Dct / SCD1: Gene Expression: SCD1, 20 mg/kg group; for 18S: Gene Expression: SCD1 table, 18S reference, 20 mg/kg group
Experimental: Gene expression analysis. Hepatic expression levels of genes involved in lipid metabolism (FAS, SREBP1, ACC1, SCD1), cholesterol metabolism (HMG-CoAR, LDLR), SREBP proteolysis (SCAP, INSIG1), ER stress (PERK), oxidative stress (NRF2), inflammation (MCP-1), and fibrosis (collagen 1α1) were quantified by RTqPCR. Expression level was normalized to 18S gene expression and relative expression to vehicle group was calculated with the […] method.
as §1, §2
Hepatic expression levels of genes involved in lipid (FAS, SREBP1, ACC1, SCD1), cholesterol metabolism (HMG-CoAR, LDLR), in SREBP proteolysis (SCAP, INSIG1), in ER stress (PERK), oxidative stress (NRF2), and inflammation (MCP-1) were not changed. However, expression of collagen 1α1, involved in liver fibrosis, was reduced by 66% in mice treated with Compound #37 (p<0.05 vs. vehicle).

CC(C)Cc1cc(-c2nc(-c3ccc(NS(=O)(=O)C(F)(F)F)cc3Cl)cs2)ccn1 [Compound 37, N-(3-chloro-4-(2-(2-isobutylpyridin-4-yl)thiazol-4-yl)phenyl)-1,1,1-trifluoromethanesulfonamide]
hepatotoxicity (transaminase concentrations) ([1]; 20 mg/kg/day, 10 weeks): No evidence of hepatotoxicity | ALAT area under the curve ([1]; group mean, n 11): 12252 U/L · day | ASAT area under the curve ([1]; group mean, n 11): 10763 U/L · day | ALAT area under the curve ([1]; individual animals): 18578 U/L · day and 17206 U/L · day and 11865 U/L · day and 9163 U/L · day and 5418 U/L · day and 9331 U/L · day and 17759 U/L · day and 11949 U/L · day and 16954 U/L · day and 8862 U/L · day and 7686 U/L · day | ASAT area under the curve ([1]; individual animals): 18662 U/L · day and 15001 U/L · day and 8456 U/L · day and 8141 U/L · day and 5607 U/L · day and 6573 U/L · day and 11550 U/L · day and 10388 U/L · day and 13167 U/L · day and 11690 U/L · day and 9163 U/L · day | ALAT, days of treatment 0 ([1]; group mean, n 12): 693 U/L | ASAT, days of treatment 0 ([1]; group mean, n 12): 615 U/L | ALAT, days of treatment 0 ([1]; individual animals): 1520 U/L and 698 U/L and 955 U/L and 551 U/L and 226 U/L and 365 U/L and 625 U/L and 563 U/L and 830 U/L and 662 U/L and 260 U/L and 1065 U/L | ASAT, days of treatment 0 ([1]; individual animals): 1440 U/L and 875 U/L and 584 U/L and 435 U/L and 217 U/L and 269 U/L and 464 U/L and 500 U/L and 725 U/L and 730 U/L and 283 U/L and 860 U/L | ALAT, days of treatment 14 ([1]; group mean, n 12): 255 U/L | ASAT, days of treatment 14 ([1]; group mean, n 12): 249 U/L | ALAT, days of treatment 14 ([1]; individual animals): 250 U/L and 252 U/L (2×) and 218 U/L and 200 U/L and 92 U/L and 198 U/L and 256 U/L and 410 U/L and 690 U/L and 134 U/L and 106 U/L | ASAT, days of treatment 14 ([1]; individual animals): 296 U/L and 268 U/L and 206 U/L and 228 U/L and 124 U/L and 150 U/L and 190 U/L and 288 U/L and 440 U/L and 248 U/L and 428 U/L and 126 U/L | ALAT, days of treatment 28 ([1]; group mean, n 12): 146 U/L | ASAT, days of treatment 28 ([1]; group mean, n 12): 146 U/L | ALAT, days of treatment 28 ([1]; individual animals): 176 U/L and 118 U/L and 96 U/L and 68 U/L and 58 U/L and 316 U/L and 226 U/L and 154 U/L and 160 U/L and 208 U/L and 38 U/L and 136 U/L | ASAT, days of treatment 28 ([1]; individual animals): 238 U/L and 98 U/L and 84 U/L and 76 U/L and 80 U/L and 168 U/L and 140 U/L and 102 U/L and 222 U/L and 288 U/L and 68 U/L and 190 U/L | ALAT, days of treatment 42 ([1]; group mean, n 12): 143 U/L | ASAT, days of treatment 42 ([1]; group mean, n 12): 136 U/L | ALAT, days of treatment 42 ([1]; individual animals): 68 U/L and 280 U/L and 52 U/L and 50 U/L (2×) and 136 U/L and 58 U/L and 168 U/L and 92 U/L and 66 U/L and 370 U/L and 322 U/L | ASAT, days of treatment 42 ([1]; individual animals): 88 U/L and 132 U/L and 80 U/L and 110 U/L and 140 U/L and 96 U/L and 200 U/L and 106 U/L and 130 U/L and 76 U/L and 174 U/L and 296 U/L | ALAT, days of treatment 56 ([1]; group mean, n 11): 136 U/L | ASAT, days of treatment 56 ([1]; group mean, n 11): 126 U/L | ALAT, days of treatment 56 ([1]; individual animals): 276 U/L and 80 U/L and 48 U/L and 68 U/L and 52 U/L and 54 U/L and 112 U/L and 130 U/L and 534 U/L and 70 U/L and 74 U/L | ASAT, days of treatment 56 ([1]; individual animals): 346 U/L and 122 U/L and 92 U/L and 108 U/L and 60 U/L and 96 U/L and 132 U/L and 112 U/L and 182 U/L and 130 U/L and 164 U/L | ALAT, days of treatment 70 ([1]; group mean, n 11): 413 U/L | ASAT, days of treatment 70 ([1]; group mean, n 11): 281 U/L | ALAT, days of treatment 70 ([1]; individual animals): 364 U/L and 1030 U/L and 326 U/L and 372 U/L and 210 U/L and 342 U/L and 1150 U/L and 358 U/L and 142 U/L (2×) and 104 U/L | ASAT, days of treatment 70 ([1]; individual animals): 258 U/L and 648 U/L and 162 U/L and 206 U/L and 180 U/L and 160 U/L and 524 U/L and 376 U/L and 182 U/L and 198 U/L and 192 U/L | liver oil-red-O quantification ([2]; 5 mg/kg daily oral gavage, group mean): 6.7% | liver oil-red-O quantification ([2]; 5 mg/kg daily oral gavage, individual animal values, 5 mg/kg): 0.67% and 2.91% and 8.82% and 9.22% and 4.41% and 6.15% and 8.06% and 8.93% and 8.85% and 9.33% | liver oil-red-O quantification ([2]; 10 mg/kg daily oral gavage, group mean): 13.23% | liver oil-red-O quantification ([2]; 10 mg/kg daily oral gavage, individual animal values, 10 mg/kg): 19.18% and 18.46% and 13.25% and 3.65% and 8.46% and 8.67% and 16.07% and 17.12% and 16.00% and 11.43% | liver oil-red-O quantification ([2]; 20 mg/kg daily oral gavage, group mean): 8.5% | liver oil-red-O quantification ([2]; 20 mg/kg daily oral gavage, individual animal values, 20 mg/kg): 13.45% and 0.42% and 15.53% and 9.89% and 4.95% and 8.17% and 4.74% and 7.06% and 15.71% and 5.38% | plasma exposure (AUC24h) in females compared with males [3]: > 4 fold | 2^DDct ([4]; individual animal): 1.76 and 2.30 and 0.58 and 0.87 and 0.84 and 1.40 and 1.54 and 1.64 and 0.61 and 0.42 and 2.57 | DDct ([4]; individual animal): −0.81 and −1.20 and 0.78 and 0.20 and 0.26 and −0.48 and −0.62 and −0.71 and 0.72 and 1.25 and −1.36 | Dct ([4]; individual animal): 4.5 and 4.11 and 6.09 and 5.51 and 5.57 and 4.83 and 4.69 and 4.6 and 6.03 and 6.56 and 3.95 | SCD1 ([4]; individual animal): 17.05 and 16.66 and 18.93 and 17.94 and 17.92 and 17.42 and 16.42 and 17.11 and 17.53 and 18.11 and 16.3 | 2^DDct ([4]; mean, n 11): 1.32 | DDct ([4]; mean, n 11): −0.18 | Dct ([4]; mean, n 11): 5.1 | SCD1 ([4]; mean, n 11): 17.4 | 18S ([4]; individual animal, 20 mg/kg): 12.55 (2×) and 12.84 and 12.43 and 12.35 (2×) and 12.59 and 11.73 and 12.51 and 11.5 and 11.55 | 18S ([4]; mean, n 11): 12.3

Reference: patent US10183015B2, “Heterocyclic compounds and methods of use” (Medivation Technologies LLC, priority 2015, dated 2019)
